Consider seven molecules from paper PMC8219408, “Switching Cytolytic Nanopores into Antimicrobial Fractal Ruptures by a Single Side Chain Mutation” (ACS nano, 2021).

For data set [1], the system named is S. aureus (ATCC 6538). The format is cell-based. How it is done: (§1) MIC values were obtained using broth microdilution against different bacteria following the protocols by Clinical and Laboratory Standards Institute. Specifically, each bacterium (100 μL of 0.5–1 × 10^6 CFU per ml) in Mueller Hinton media broth (Oxoid) was incubated in 96-well microtiter plates at 37 °C on a 3D orbital shaker. 100 μL of serial twofold peptide dilutions (from 100 to 0 μM) were used. Following peptide addition, absorbance (600 nm) was measured in a SpectraMax i3x multi-mode microplate reader (Molecular Devices). The lowest peptide concentrations inhibiting visible bacterial growth after 24 h at 37 °C was defined as MICs. All tests were performed in triplicate.

Data set [2] relates to S. typhimurium (6192). It is filed as cell-based. The method, then:
as §1

The test system of data set [3] is K. pneumoniae (NCTC 5055). The format is cell-based. How it is done:
as §1

The subject of data set [4] is P. aeruginosa (ATCC 27853). It is filed as cell-based. The method, then: as §1
For data set [5], the system named is B. subtilis (ATCC 6633). It is filed as cell-based. The method, then:
as §1

Data set [6] has as its system E. coli (ATCC 15597). The format is cell-based. The method, then: as §1
Data set [7] relates to M. luteus (ATCC 49732). It is filed as cell-based. How it is done: as §1
Data set [8] relates to Human erythrocytes. Briefly: Hemolysis assay. It is filed as cell-based. The method, then: For hemolysis measurements 10% (vol/vol) suspensions of human erythrocytes with peptides were used. Phosphate buffer saline (PBS, 10 mM, pH 7.2) was used to rinse human red blood cells (4x) using repeated centrifugation and re-suspension (3 min, 3000 × g). The cells were incubated for 1 h at room temperature in deionized water (fully hemolysed control), with peptide in PBS or just PBS, which was followed by centrifugation (5 min, 10000 × g). The obtained supernatant was then separated from the pellet, and absorbance (550 nm) was measured in a SpectraMax i3x multi-mode microplate reader (Molecular Devices). Absorbance obtained for the suspension that was treated with deionized water gave complete (100%) hemolysis. Table S1 summarises the results, with the values corresponding to % hemolysis for peptide at 250 μM. All tests were performed in triplicate.

Data set [9] has as its target DLPC/DLPG (3:1 molar ratio) unilamellar vesicles. Description: Isothermal titration calorimetry, anionic vesicles. To be noted: ITC, peptide (500 μM) titrated into DLPC/DLPG (3:1) vesicles (380 μM total lipid), 25 °C, one-set binding model, duplicate; read-out: dissociation constant (KD). How it is done:
The lipids used for the assembly of unilamellar vesicles were from Avanti Polar Lipids: 1,2-dilauroylphosphatidylcholine (DLPC) was used for zwitterionic vesicles, while its mixture with 1,2-dilauroyl-sn-glycero-3-phospho-(1’-rac-glycerol) (DLPG) at a 3:1 molar ratio was used for anionic vesicles. After weighting up the lipid aliquots were dissolved in chloroform and dried under a nitrogen stream until a thin film was formed. The obtained film was subjected to hydration in 10 mM phosphate buffer (pH 7.4), which was followed by vortexing (1x, 2 min) and sonication (1x, 30 min). A hand-held extruder (Avanti Polar lipids) was used to extrude the resulting suspension (29x, polycarbonate filter, 0.05 μm) until a clear solution containing small unilamellar vesicles (SUV) was obtained. The SUVs were then analysed (50 nm) using a Zetasizer Nano (ZEN3600, Malvern Instruments, UK) and re-suspended to a final concentration of 1 mg/mL. The measurements were performed using a low volume disposable cuvette at 25°C. […]
A Microcal isothermal titration calorimeter-200 (ITC-200) was used to carry out all ITC experiments. […] Binding isotherms were recorded for peptides (500 μM) titrated into unilamellar phospholipid vesicles (380 μM, total lipid) in the cell. […]

[10] abbreviates: K. pneumoniae (NCTC 5055), broth microdilution (CLSI), Mueller Hinton broth, 24 h at 37 °C, triplicate.

Structures are written as SMILES. ≈ marks a conversion by molar mass, not a printed value. Like-named read-outs stand apart in the source and are kept apart here. Bridge positions count the residues as written; N and C are the ends. Square brackets hold non-standard residues; d marks the D form. Peptide text beside a SMILES is read from it. * marks the point of attachment. X1 = CC[C@H](C)CCCCC(=O)*; Dab = NCC[C@H](N)C(=O)O

Turning to `CC(C)C[C@H](NC(=O)[C@H](CC(C)C)NC(=O)[C@H](CCCNC(=N)N)NC(=O)[C@H](CC(C)C)NC(=O)[C@H](C)NC(=O)[C@H](CC(C)C)NC(=O)[C@H](CCCNC(=N)N)NC(=O)[C@H](CC(C)C)NC(=O)[C@H](CC(C)C)NC(=O)[C@@H](N)CCCNC(=N)N)C(N)=O` [bienA10] (H-RLLRLALRLL-NH2; N-terminus assumed), the Minimum inhibitory concentration amounted to 3 µM (≈ 3.71 µg/mL) in [1] (ATCC 6538, 24 h); 6 µM (≈ 7.41 µg/mL) in data set [2] (6192, 24 h); 3 µM (≈ 3.71 µg/mL) in data set [3] (NCTC 5055, 24 h); 25 µM (≈ 30.9 µg/mL) in [4] (ATCC 27853, 24 h); 1.5 µM (≈ 1.85 µg/mL) in data set [5] (ATCC 6633, 24 h); 3 µM (≈ 3.71 µg/mL) in data set [6] (ATCC 15597, 24 h). Besides, the Minimum inhibitory concentration in [7] (ATCC 49732, 24 h) was found to be 1.5 µM (≈ 1.85 µg/mL). Further, the “% hemolysis, at 250 μM” value in data set [8] (250 µM, pH 7.2) is on record as 25%.
`CC(C)C[C@H](NC(=O)[C@H](CC(C)C)NC(=O)[C@H](CCCNC(=N)N)NC(=O)[C@H](CC(C)C)NC(=O)[C@H](CCCCN)NC(=O)[C@H](CC(C)C)NC(=O)[C@H](CCCNC(=N)N)NC(=O)[C@H](CC(C)C)NC(=O)[C@H](CC(C)C)NC(=O)[C@@H](N)CCCNC(=N)N)C(=O)N[C@@H](CCCNC(=N)N)C(N)=O` [bienK11] (H-RLLRLKLRLLR-NH2): the Minimum inhibitory concentration in [1] (ATCC 6538, 24 h) is 12 µM (≈ 17.4 µg/mL); in data set [2] (6192, 24 h) it was 50 µM (≈ 72.4 µg/mL); in data set [3] (NCTC 5055, 24 h), more than 50 µM; in data set [4] (ATCC 27853, 24 h) it was 12 µM (≈ 17.4 µg/mL); in data set [5] (ATCC 6633, 24 h), 3 µM (≈ 4.35 µg/mL); in data set [6] (ATCC 15597, 24 h), 3 µM (≈ 4.35 µg/mL). The molecule also gave a Minimum inhibitory concentration in [7] (ATCC 49732, 24 h) of 1.5 µM (≈ 2.17 µg/mL). Also, the “hemolytic activity (in words)” value in data set [8] is given as “non-hemolytic”. Besides, the “% hemolysis, at 250 μM” value in data set [8] (250 µM, pH 7.2) is 0%.
One may read the Kd as the equilibrium constant for the complex coming apart. Turning to `CC(C)C[C@H](NC(=O)[C@H](CCCNC(=N)N)NC(=O)[C@H](CC(C)C)NC(=O)[C@H](C)NC(=O)[C@H](CC(C)C)NC(=O)[C@H](CCCNC(=N)N)NC(=O)[C@H](CC(C)C)NC(=O)[C@H](CC(C)C)NC(=O)[C@@H](N)CCCNC(=N)N)C(N)=O` [bienA9] (H-RLLRLALRL-NH2; N-terminus assumed), the Kd in data set [9] is 170 nM. Moreover, the Minimum inhibitory concentration in [1] (ATCC 6538, 24 h) came to 25 µM (≈ 28.1 µg/mL); in data set [2] (6192, 24 h) it was 50 µM (≈ 56.1 µg/mL); in data set [3] (NCTC 5055, 24 h), 50 µM (≈ 56.1 µg/mL); in [4] (ATCC 27853, 24 h) it was 50 µM (≈ 56.1 µg/mL); in data set [5] (ATCC 6633, 24 h) it was 6 µM (≈ 6.73 µg/mL); in data set [6] (ATCC 15597, 24 h) it was 6 µM (≈ 6.73 µg/mL). Besides, the Minimum inhibitory concentration in data set [7] (ATCC 49732, 24 h) is 1.5 µM (≈ 1.68 µg/mL). Further, the “% hemolysis, at 250 μM” value in [8] (250 µM, pH 7.2) came to 25%.
As to `CC(C)C[C@H](NC(=O)[C@H](CC(C)C)NC(=O)[C@H](CCCNC(=N)N)NC(=O)[C@H](CC(C)C)NC(=O)[C@H](CCCCN)NC(=O)[C@H](CC(C)C)NC(=O)[C@H](CCCNC(=N)N)NC(=O)[C@H](CC(C)C)NC(=O)[C@H](CC(C)C)NC(=O)[C@@H](N)CCCNC(=N)N)C(N)=O` [bienK10] (H-RLLRLKLRLL-NH2; N-terminus assumed), the Minimum inhibitory concentration in [1] (ATCC 6538, 24 h) is 25 µM (≈ 32.3 µg/mL); in data set [2] (6192, 24 h) it was 50 µM (≈ 64.6 µg/mL); in [3] (NCTC 5055, 24 h) it was more than 50 µM; in data set [4] (ATCC 27853, 24 h), 25 µM (≈ 32.3 µg/mL); in data set [5] (ATCC 6633, 24 h), 6 µM (≈ 7.76 µg/mL); in data set [6] (ATCC 15597, 24 h), 3 µM (≈ 3.88 µg/mL). Also, in data set [7] (ATCC 49732, 24 h), the Minimum inhibitory concentration came to 1.5 µM (≈ 1.94 µg/mL). In addition, the “% hemolysis, at 250 μM” value in data set [8] (250 µM, pH 7.2) is listed as 0%.
In [3] (setting [10]), `CC[C@H](C)[C@H](NC(=O)CN)C(=O)NCC(=O)N[C@@H](C)C(=O)N[C@H](C(=O)N[C@@H](CC(C)C)C(=O)N[C@@H](CCCCN)C(=O)N[C@H](C(=O)N[C@@H](CC(C)C)C(=O)N[C@H](C(=O)N[C@H](C(=O)NCC(=O)N[C@@H](CC(C)C)C(=O)N1CCC[C@H]1C(=O)N[C@@H](C)C(=O)N[C@@H](CC(C)C)C(=O)N[C@H](C(=O)N[C@@H](CO)C(=O)N[C@@H](Cc1c[nH]c2ccccc12)C(=O)N[C@H](C(=O)N[C@@H](CCCCN)C(=O)N[C@@H](CCCNC(=N)N)C(=O)N[C@@H](CCCCN)C(=O)N[C@@H](CCCNC(=N)N)C(=O)N[C@@H](CCC(N)=O)C(=O)N[C@@H](CCC(N)=O)C(N)=O)[C@@H](C)CC)[C@@H](C)CC)[C@@H](C)O)[C@@H](C)O)C(C)C)C(C)C` [melittin, reference compound] came in with a Minimum inhibitory concentration of 3 µM (≈ 8.54 µg/mL).
As to `CC(C)C[C@H](NC(=O)[C@H](C)NC(=O)[C@H](CC(C)C)NC(=O)[C@H](CCCNC(=N)N)NC(=O)[C@H](CC(C)C)NC(=O)[C@H](CC(C)C)NC(=O)[C@@H](N)CCCNC(=N)N)C(=O)N[C@@H](CCCNC(=N)N)C(=O)N[C@@H](CC(C)C)C(=O)N[C@@H](CC(C)C)C(=O)N[C@@H](CCCNC(=N)N)C(N)=O` [bienA11] (H-RLLRLALRLLR-NH2; N-terminus assumed), the Minimum inhibitory concentration in [1] (ATCC 6538, 24 h) amounted to 3 µM (≈ 4.18 µg/mL); in data set [2] (6192, 24 h), 12 µM (≈ 16.7 µg/mL); in data set [3] (NCTC 5055, 24 h), 6 µM (≈ 8.35 µg/mL); in [4] (ATCC 27853, 24 h), 3 µM (≈ 4.18 µg/mL); in data set [5] (ATCC 6633, 24 h) it was 6 µM (≈ 8.35 µg/mL); in [6] (ATCC 15597, 24 h) it was 3 µM (≈ 4.18 µg/mL). For the same molecule, the Minimum inhibitory concentration in data set [7] (ATCC 49732, 24 h) was determined as 1.5 µM (≈ 2.09 µg/mL). In addition, the “hemolytic activity (in words)” value in data set [8] is given as “hemolytic”. Also, the “% hemolysis, at 250 μM” value in data set [8] (250 µM, pH 7.2) worked out at 25%.
For `CC[C@H](C)CCCCC(=O)N[C@@H](CCN)C(=O)N[C@H](C(=O)N[C@@H](CCN)C(=O)N[C@H]1CCNC(=O)[C@H]([C@@H](C)O)NC(=O)[C@H](CCN)NC(=O)[C@H](CCN)NC(=O)[C@H](CC(C)C)NC(=O)[C@@H](Cc2ccccc2)NC(=O)[C@H](CCN)NC1=O)[C@@H](C)O` [polymyxin B, reference compound] (X1-[Dab]T[Dab][Dab][Dab][dF]L[Dab][Dab]T; lactam 4-C (inferred); N-terminus assumed), the Minimum inhibitory concentration in data set [1] (S. aureus (ATCC 6538), broth microdilution (CLSI), Mueller Hinton broth, 24 h at 37 °C, triplicate) amounted to 25 µM (≈ 30.1 µg/mL); in data set [2] (S. typhimurium (6192), broth microdilution (CLSI), Mueller Hinton broth, 24 h at 37 °C, triplicate), 1.5 µM (≈ 1.81 µg/mL); in data set [3] (setting [10]), 3 µM (≈ 3.61 µg/mL); in data set [4] (P. aeruginosa (ATCC 27853), broth microdilution (CLSI), Mueller Hinton broth, 24 h at 37 °C, triplicate) it was 1.5 µM (≈ 1.81 µg/mL); in data set [5] (B. subtilis (ATCC 6633), broth microdilution (CLSI), Mueller Hinton broth, 24 h at 37 °C, triplicate) it was 3 µM (≈ 3.61 µg/mL); in data set [6] (E. coli (ATCC 15597), broth microdilution (CLSI), Mueller Hinton broth, 0.5–1 × 10^6 CFU per ml, 24 h at 37 °C, absorbance 600 nm, triplicate), 1.5 µM (≈ 1.81 µg/mL). This molecule came in with a Minimum inhibitory concentration in [7] (M. luteus (ATCC 49732), broth microdilution (CLSI), Mueller Hinton broth, 24 h at 37 °C, triplicate) of 1.5 µM (≈ 1.81 µg/mL). Besides, the “% hemolysis, at 250 μM” value in data set [8] (peptide at 250 μM, 10% (vol/vol) human erythrocytes in PBS pH 7.2, 1 h at room temperature, absorbance 550 nm, deionized water = 100%, triplicate) is given as 5%.
